# Data from patent US8436006B2, “2-amino-quinazoline derivatives useful as inhibitors of β-secretase (BACE)” (Jansssen Pharmaceutica N.V., priority 2004, dated 2013).
# Experiments:
# Assay type in all cases: biochemical
# β-secretase (BACE) [1] = molecular target: T1, β-secretase (BACE) (Homo sapiens, UniProt P56817); test: BACE Assay-1 (Example 158), MCA-substrate fluorescence; conditions: procedure of Example 158
# T1 construct: purchased Panvera
# Protocol: The following standards are reagents were used in this assay: Sodium Citrate trisodium salt dihydrate (Sigma), Citric Acid monohydrate (Merck), PEG8000 (Sigma), MCA-substrate (Bachem), β-secretase (BACE) (Panvera), 96-well plate zwart (Costar (Elscolab)), StatVal (Bachem).
# The following standard assay buffer solution was prepared and used in this assay: 0.05 M, pH 5.0 mixture of sodium citrate trisodium salt dihydrate (9.56 g), citric acid monohydrate (3.68 g) and PEG8000 (0.50 g).
# The MCA-substrate stock solution was prepared by mixing 10 mg MCA-substrate with 5 mL DMSO for a final solution concentration of 2.0 mg/mL. The substrate work solution was prepared by mixing 0.1 mL substrate in 1.90 mL assay buffer for a final concentration of 0.05 mM. The β-secretase (BACE) work solution was prepared by mixing 8 μL BACE in 2 mL assay buffer for a final concentration of 10 μg/mL.
# The screen procedure for this assay was as follows. 60 μL of assay buffer was pippeted into each well of a 96-well plate. To each well was then pipetted 1 μL of test compound at the selected concentration. To each well was then added 20 μL of the β-secretase work solution and 20 μL of the MCA-substrate stock solution.
# The procedure for the blank was as follows. 80 μL of assay buffer was pipetted into each well to be used as a blank control. To each well was then added 1 μL of DMSO and 20 μL of MCA-substrate solution in each well.
# The procedure for the positive control was as follows. 60 μL of assay buffer was pipetted into each well to be used as a positive control. To each well was then added 1 μL of DMSO, 20 μL of BACE work solution and 20 μL of MCA-substrate stock solution.
# For test compounds, measured at multiple concentrations, the measured T0 and T60 values were used to calculate an IC50 value using Graphpad Software (or PIR).
# β-secretase (BACE) [2] = molecular target: T1, β-secretase (BACE); test: BACE FS1% Inhibition Assay (Example 160); conditions: for inhibition at 3 µM / inhibition at 10 µM / inhibition at 0.3 µM / inhibition at 1 µM: read-out: % Inhibition (FS); for inhibition at 10 µM: 10 μM test compound
# Protocol: The following reagents were used in this assay: sodium acetate, PEB8000 (Sigma), DMSO, HEPES, FS1 substrate [[…]], β-secretase (BACE) (Panvera), and 96-well plate (HE microplate, Molecular Devices). […] The FS1-substrate stock solution was prepared in DMSO as a 10 mg/mL solution. The FS1-substrate working solution was prepared by diluting the 10 mg/mL stock solution with substrate assay buffer to a final concentration of 300 μg/mL. The β-secretase (BACE) working solution was prepared by diluting a 0.83 mg/mL BACE stock solution with enzyme assay buffer to a final concentration of 4 μg/mL. Test compounds were dissolved in DMSO to 10 mM. […] The screening procedure for this assay was as follows: 15 μL of BACE working solution was pipetted into each well of a 96-well plate. To each well was the pipetted 2 μL of test compound at the selected concentration. Test compound and BACE were then mixed with a pipettor and incubated for 20 min at room temperature. To each well was then added 10 μL of the FS1 substrate working solution. The plates were then incubated for 1 hour at room temperature. […] The procedure for the blank was as follows. 15 μL of assay buffer was pipetted into each well to be used as a blank control. To each well was then added 2 μL of vehicle and 10 μL of FS1-substrate working solution. The plates were then incubated for 1 hour at room temperature. […] The procedure for the positive control was as follows: 15 μL of BACE working solution was pipetted into each well to be used as a positive control. To each well was then pipetted 2 μL of vehicle. Vehicle and BACE were then mixed with a pipettor and incubated for 20 min at room temperature. To each well was then added 10 μL of the FS1 substrate working solution. The plates were then incubated for 1 hour at room temperature. […] For test compounds, % inhibition was determined at each concentration as follows: [formula]
# β-secretase (BACE) [3] = molecular target: T1, β-secretase (BACE); test: BACE Assay-2 (Example 159), FS1 substrate, kinetic fluorescence; conditions: procedure of Example 159
# Protocol: (§1) The FS1-substrate stock solution was prepared in DMSO as a 10 mg/mL solution. The FS1-substrate working solution was prepared by diluting the 10 mg/mL stock solution with substrate assay buffer to a final concentration of 300 μg/mL. The β-secretase (BACE) working solution was prepared by diluting a 0.83 mg/mL BACE stock solution with enzyme assay buffer to a final concentration of 4 μg/mL.
# Test compounds were dissolved in DMSO at 10 mM.
# (§2) The procedure for this assay was as follows: 15 μL of BACE working solution was pipetted into each well of a 96-well plate. To each well was then pipetted 2 μL of test compound at the selected concentration. Test compound and BACE were then mixed with a pipettor and incubated for 20 min at room temperature. To each well was then added 10 μL of the FS1 substrate working solution.
# (§3) The procedure for the positive control was as follows: 15 μL of BACE working solution was pipetted into each well to be used as a positive control. To each well was then pipetted 2 μL of vehicle. Vehicle and BACE were then mixed with a pipettor and incubated for 20 min at room temperature. To each well was then added 10 μL of the FS1 substrate working solution.
# For test compounds, measured at multiple concentrations, the measured T0 and T60 values were used to calculate an IC50 value using Graphpad Software (or PIR). For test compounds, Ki inhibition was determined as follows: For each compound concentration and positive control, rate of cleavage of substrate (Vi, where i=compound concentration in μM) was determined as Δ Fluorescence/Δ time (min). Cleavage rates (Vi) were plotted as a function of inhibitor concentration in μM [I]. The Ki was then determined by fitting the following equation to the graph of [I] vs Vi Y=aVmax/(50+24*(1+X/Ki)),
# β-secretase (BACE) [4] = molecular target: T1, β-secretase (BACE); test: BACE % Inhibition Assay (Example 161), (Aedens)-[…]-(Dabcyl K-amide) substrate; conditions: % error ±10%; for inhibition at 1 µM: 1 μM test compound
# Protocol: The following reagents were used in this assay: sodium acetate, PEG8000 (Sigma), DMSO, HEPES, (Aedens)-[…]-(Dabcyl K-amide) substrate, β-secretase (BACE) (Panvera), and 96-well plate (HE microplate, Molecular Devices).
# as §1, with “substrate” for “FS1-substrate”
# Test compounds were dissolved in DMSO to 10 mM.
# as §2, with “The screening” for “The”, “the” for “the FS1”, “solution. The plates were then incubated for 1 hour at room temperature.” for “solution.”
# The procedure for the blank was as follows. 15 μL of assay buffer was pipetted into each well to be used as a blank control. To each well was then added 2 μL of vehicle and 10 μL of substrate working solution. The plates were then incubated for 1 hour at room temperature.
# as §3, with “15 μl” for “15 μL”, “the” for “the FS1”, “solution. The plates were then incubated for 1 hour at room temperature.” for “solution.”
# For test compounds, % inhibition was determined at each concentration as follows: % Inhibition=[[…]][FI(positive control)−FI(negative control)]
# T1 sequence (P56817 46-501): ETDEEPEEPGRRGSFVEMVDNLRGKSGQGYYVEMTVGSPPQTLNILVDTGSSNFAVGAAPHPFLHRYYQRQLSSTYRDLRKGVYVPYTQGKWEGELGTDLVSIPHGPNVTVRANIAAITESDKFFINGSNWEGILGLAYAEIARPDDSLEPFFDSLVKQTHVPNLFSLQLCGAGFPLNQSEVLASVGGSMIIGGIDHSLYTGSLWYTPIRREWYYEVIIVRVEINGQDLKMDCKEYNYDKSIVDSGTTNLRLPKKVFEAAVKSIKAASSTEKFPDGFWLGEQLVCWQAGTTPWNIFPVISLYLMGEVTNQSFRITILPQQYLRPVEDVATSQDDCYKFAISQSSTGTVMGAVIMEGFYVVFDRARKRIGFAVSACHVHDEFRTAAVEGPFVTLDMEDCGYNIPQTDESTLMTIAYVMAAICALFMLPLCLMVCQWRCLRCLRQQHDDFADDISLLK
smiles,measurement,setting,value
CCCC(CCCC(=O)NC1CCCCC1)N1Cc2cc(Oc3ccccc3)ccc2N=C1N (centres unmarked) [Compound 91],IC50,β-secretase (BACE) [1],0.6 µM
same,inhibition at 3 µM,β-secretase (BACE) [2]; 3 μM test compound,68%
same,inhibition at 10 µM,β-secretase (BACE) [2],117%
same,Ki,β-secretase (BACE) [3],0.32 µM
NC1=Nc2ccc(Oc3ccccc3)cc2CN1Cc1cccc(C(=O)N(C2CCCCC2)C2CCCCC2)c1 [Compound 98],% Inhibition,β-secretase (BACE) [4]; 3 μM test compound,76%
same,% Inhibition,β-secretase (BACE) [4]; 10 μM test compound,99%
same,% Inhibition (FS),β-secretase (BACE) [2]; 0.3 μM test compound,49%
same,% Inhibition (FS),β-secretase (BACE) [2]; 1 μM test compound,93%
same,% Inhibition (FS),β-secretase (BACE) [2]; 3 μM test compound,114%
CCCC(CCC(=O)NC1CCCCCC1)N1Cc2cc(Oc3ccccc3)ccc2N=C1N (centres unmarked) [Compound 128],IC50,β-secretase (BACE) [1],0.072 µM
same,inhibition at 3 µM,β-secretase (BACE) [2]; 3 μM test compound,97%
same,inhibition at 10 µM,β-secretase (BACE) [2],108%
same,Ki,β-secretase (BACE) [3],0.13 µM
CCCCCC(CCC(=O)NC1CCCCCC1)N1Cc2cc(Oc3ccccc3)ccc2N=C1N (centres unmarked) [Compound 150],inhibition at 0.3 µM,β-secretase (BACE) [2]; 0.3 μM test compound,< 30%
same,inhibition at 1 µM,β-secretase (BACE) [2]; 1 μM test compound,< 30%
same,inhibition at 3 µM,β-secretase (BACE) [2]; 3 μM test compound,90%
same,Ki,β-secretase (BACE) [3],0.46 µM
CN(C(=O)CC(C1CCCCC1)N1Cc2cc(Oc3ccccc3)ccc2N=C1N)C1CCCCC1 (centres unmarked) [Compound 199],inhibition at 0.3 µM,β-secretase (BACE) [2]; 0.3 μM test compound,< 30%
same,inhibition at 1 µM,β-secretase (BACE) [2]; 1 μM test compound,< 30%
same,inhibition at 3 µM,β-secretase (BACE) [2]; 3 μM test compound,82%
same,Ki,β-secretase (BACE) [3],0.51 µM
CCCN1Cc2cc(Oc3cccc(NS(=O)(=O)c4cccc5nsnc45)c3)ccc2N=C1N [Compound 247],IC50,β-secretase (BACE) [1],1.7 µM
CC(C)(C)OC(=O)NCC(C1CCCCC1)N1Cc2cc(Oc3ccccc3)ccc2N=C1N (centres unmarked) [Compound 257],IC50,β-secretase (BACE) [1],0.083 µM
same,inhibition at 0.3 µM,β-secretase (BACE) [2]; 0.3 μM test compound,67%
same,inhibition at 1 µM,β-secretase (BACE) [2]; 1 μM test compound,105%
same,Ki,β-secretase (BACE) [3],0.056 µM
NC1=Nc2ccc(Oc3ccccc3)cc2CN1C(CNC(=O)C12CC3CC(CC(C3)C1)C2)C1CCCCC1 (centres unmarked) [Compound 312],IC50,β-secretase (BACE) [1],0.039 µM
same,inhibition at 0.3 µM,β-secretase (BACE) [2]; 0.3 μM test compound,74%
same,inhibition at 1 µM,β-secretase (BACE) [2]; 1 μM test compound,103%
same,inhibition at 3 µM,β-secretase (BACE) [2]; 3 μM test compound,115%
same,Ki,β-secretase (BACE) [3],0.039 µM
CC(C)(C)C(=O)NCC(C1CCCCC1)N1Cc2cc(Oc3ccccc3)ccc2N=C1N (centres unmarked) [Compound 317],IC50,β-secretase (BACE) [1],0.39 µM
same,inhibition at 0.3 µM,β-secretase (BACE) [4]; 0.3 μM test compound,< 30%
same,inhibition at 1 µM,β-secretase (BACE) [4],66%
same,inhibition at 3 µM,β-secretase (BACE) [4]; 3 μM test compound,107%
same,Ki,β-secretase (BACE) [3],0.18 µM
NC1=Nc2ccc(Oc3ccccc3)cc2CN1C(CNC(=O)C1(c2ccc(Cl)cc2)CCCC1)C1CCCCC1 (centres unmarked) [Compound 390],inhibition at 0.3 µM,β-secretase (BACE) [4]; 0.3 μM test compound,< 30%
same,inhibition at 1 µM,β-secretase (BACE) [4],50%
same,inhibition at 3 µM,β-secretase (BACE) [4]; 3 μM test compound,102%
same,Ki,β-secretase (BACE) [3],0.57 µM
NC1=Nc2ccc(Oc3ccccc3)cc2CN1C(CCNC(=O)C1CCCC1)C1CCCCC1 (centres unmarked) [Compound 392],% Inhibition,β-secretase (BACE) [4]; 0.3 μM test compound,75%
same,% Inhibition,β-secretase (BACE) [4]; 3 μM test compound,120%
CCCC(CNC(=O)C12CC3CC(CC(C3)C1)C2)N1Cc2cc(Oc3ccccc3)ccc2N=C1N (centres unmarked) [Compound 602],inhibition at 0.3 µM,β-secretase (BACE) [2]; 0.3 μM test compound,78%
same,inhibition at 1 µM,β-secretase (BACE) [2]; 1 μM test compound,113%
same,inhibition at 3 µM,β-secretase (BACE) [2]; 3 μM test compound,121%
same,Ki,β-secretase (BACE) [3],0.056 µM
CCC[C@H](CNC(=O)CCC(C)C)N1Cc2cc(Oc3ccccc3)ccc2N=C1N [Compound 603],inhibition at 0.3 µM,β-secretase (BACE) [2]; 0.3 μM test compound,101%
same,inhibition at 1 µM,β-secretase (BACE) [2]; 1 μM test compound,114%
same,inhibition at 3 µM,β-secretase (BACE) [2]; 3 μM test compound,122%
same,Ki,β-secretase (BACE) [3],0.033 µM
